From US11820773B2, “Tricyclic compounds” (ALIGOS THERAPEUTICS, INC., priority 2020, dated 2023)

These molecules were tested on HBV (assay: HBV-DNA antiviral assay using HepG2.117 cells (intracellular HBV DNA by qPCR)). Settings: Hepatitis B virus, 72 h, HBV DNA inhibition, 3 days incubation, 2% DMSO.
Type: cell-based, genotype D HBV
How it was run: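 HepG2.117 cells (stable genotype D HBV, Tet-off) seeded without doxycycline, treated next day with 9-point 4-fold dilutions in 2% DMSO for 3 days at 37° C. Intracellular HBV DNA quantified by qPCR against a standard curve; viability by CellTiter-Glo ATP. EC50, EC90, CC50 from variable-slope dose-response fits versus DMSO control.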

SMILES | EC50
CNC(=O)c1ccc(-n2c(=O)c3c(n4ncc(Cc5ccccc5)c24)CN(C(=O)c2ccc(Br)c(C(F)F)c2)CC3)cc1 [Compound 3, 4-[5-benzyl-12-[4-bromo-3-(difluoromethyl)benzoyl]-8-oxo-2,3,7,12-tetrazatricyclo[7.4.0.0^2,6]trideca-1(9),3,5-trien-7-yl]-N-methyl-benzamide] | < 50 nM
CNC(=O)c1ccc(-n2c(=O)c3c(n4ncc(CC5CCOC5)c24)CN(C(=O)c2ccc(Br)c(Cl)c2)CC3)cc1 (stereo not drawn) [Compound 17, 4-[12-(4-bromo-3-chloro-benzoyl)-8-oxo-5-(tetrahydrofuran-3-ylmethyl)-2,3,7,12-tetrazatricyclo[7.4.0.0^2,6]trideca-1(9),3,5-trien-7-yl]-N-methyl-benzamide] | < 50 nM
CNc1n[nH]c2cc(-n3c(=O)c4c(n5ncc(CC6CC6)c35)CN(C(=O)c3ccc(Br)c(C(F)(F)F)c3)CC4)ccc12 [Compound 28, 12-[4-bromo-3-(trifluoromethyl)benzoyl]-5-(cyclopropylmethyl)-7-[3-(methylamino)-1H-indazol-6-yl]-2,3,7,12-tetrazatricyclo[7.4.0.0^2,6]trideca-1(9),3,5-trien-8-one] | < 50 nM
Cc1nn[nH]c1-c1ccc(-n2c(=O)c3c(n4ncc(CC5CCC5)c24)CN(C(=O)c2ccc(Br)c(C(F)(F)F)c2)[C@H](C)C3)cc1 (stereo in doubt) [Compound 76a, rac-(11R)-12-[4-bromo-3-(trifluoromethyl)benzoyl]-5-(cyclobutylmethyl)-11-methyl-7-[4-(4-methyl-1H-triazol-5-yl)phenyl]-2,3,7,12-tetrazatricyclo[7.4.0.0^2,6]trideca-1(9),3,5-trien-8-one] | < 50 nM
CNC(=O)c1ccc(-n2c(=O)c3c(n4ncc(CC(C)C)c24)CN(C(=O)c2ccc(Br)c(Cl)c2)[C@H](C)C3)cc1 (stereo in doubt) [Compound 55a, N-methyl-4-[rac-(11R)-12-(4-bromo-3-chloro-benzoyl)-5-isobutyl-11-methyl-8-oxo-2,3,7,12-tetrazatricyclo[7.4.0.0^2,6]trideca-1(9),3,5-trien-7-yl]benzamide] | < 50 nM
CNC(=O)c1ccc(-n2c(=O)c3c(n4ncc(CC5CCC5)c24)CN(C(=O)c2ccc(Br)c(C(F)(F)F)c2)CC3)cc1 [Compound 16, 4-[12-[4-bromo-3-(trifluoromethyl)benzoyl]-5-(cyclobutylmethyl)-8-oxo-2,3,7,12-tetrazatricyclo[7.4.0.0^2,6]trideca-1(9),3,5-trien-7-yl]-N-methyl-benzamide] | < 50 nM
C[C@H]1Cc2c(n3ncc(Cc4ccccc4)c3n(-c3ccc(-c4cnnn4C)cc3)c2=O)CN1C(=O)c1ccc(Br)c(C(F)(F)F)c1 (stereo in doubt) [Compound 105b, rac-(11S)-5-benzyl-12-[4-bromo-3-(trifluoromethyl)benzoyl]-11-methyl-7-[4-(3-methyltriazol-4-yl)phenyl]-2,3,7,12-tetrazatricyclo[7.4.0.0^2,6]trideca-1(9),3,5-trien-8-one] | 50 to 500 nM
C[C@@H]1Cc2c(n3ncc(CC4CC4)c3n(-c3ccc(-c4nc(=O)on4C)cc3)c2=O)CN1C(=O)c1ccc(Br)c(C(F)(F)F)c1 (stereo in doubt) [Compound 93a, 2-methyl-3-[4-[rac-(11R)-12-[4-bromo-3-(trifluoromethyl)benzoyl]-5-(cyclopropylmethyl)-11-methyl-8-oxo-2,3,7,12-tetrazatricyclo[7.4.0.0^2,6]trideca-1(9),3,5-trien-7-yl]phenyl]-1,2,4-oxadiazol-5-one] | < 50 nM
C[C@H]1Cc2c(n3ncc(Cc4ccccc4)c3n(-c3ccc(-c4n[nH]c(=O)n4C)cc3)c2=O)CN1C(=O)c1ccc(Br)c(C(F)(F)F)c1 (stereo in doubt) [Compound 58b, rac-(11S)-5-benzyl-12-[4-bromo-3-(trifluoromethyl)benzoyl]-11-methyl-7-[4-(4-methyl-5-oxo-1H-1,2,4-triazol-3-yl)phenyl]-2,3,7,12-tetrazatricyclo[7.4.0.0^2,6]trideca-1(9),3,5-trien-8-one] | < 50 nM
